Measurements as given in patent publication US20230303512A1, “MODULATORS OF MYB-MEDIATED TRANSCRIPTION AND USES THEREOF” (Massachusetts Institute of Technology, priority 2020, published 2023).
Several values for one entry are separate records, joined by “and”; a condition that tells them apart may be missing. Equal entries are not always repeated. Entries after “also recorded” stand apart in the source; their conditions may differ.

What was measured:
endogenous MYB = test: 5×MRE-luciferase reporter assay in Jurkat cells; assay type: cell-based; conditions: Homo sapiens, 5×MRE firefly luciferase, 18 hours, normalized to DMSO
Method: (§1) An assay using a 5×Myb-response element (MRE)-luciferase construct was used to evaluate the compounds' ability to bind MYB and/or disrupt the MYB-NFIB interaction. The 5×MRE reporter was conducted in both HEK293T cells and Jurkat cells, and for the HEK293T system a transient transfection of plasmid vectors expressing either MYB or MYB-NFIB, and a plasmid containing the 5×MRE promoter sequence cloned upstream of Firefly luciferase were used. For the Jurkat system, the reporter was driven by endogenous MYB, and the 5×MRE construct was transiently transfected. Cells were treated with two different high concentrations of each compound (10 and 20 µM) and the luciferase activity was measured 18 hours post-treatment. Individual wells were normalized for viability (cell count) using the Cyto-tox One assay (Promega).
Jurkat cells were reverse transfected at a density of 40,000 cells/well at the time of plating with a plasmid encoding 5×MRE reporter construct driving firefly luciferase expression. 4 hours following transfection, the compound analogs were added using a Tecan transfer tool to the wells. The plate was incubated for 18 hours, and then firefly luciferase signal was measured using promega Steady-glo luciferase assay system according to the manufacturer's protocols. The signal was normalized to control wells which were treated with DMSO vehicle.

Jurkat = test: Cell Titer Glo viability assay, Jurkat; assay type: cell-based; conditions: Homo sapiens, read-out: IC50 Cell Titer Glow Viability Jurkat
c-Myb = test: 5×MRE-luciferase reporter assay in HEK293T cells; assay type: cell-based; conditions: Homo sapiens, HEK-293T; c-Myb plus 5×MRE firefly luciferase transfected, 18 hours, normalized to DMSO
Method: as §1
HEK293T cells were plated at a density of 7500 cells/well in a 384-well plate. The following day, the cells were transfected with plasmids encoding 1)c-Myb under control of a CMV promoter, 2) 5×MRE reporter construct driving firefly luciferase expression in a 1:2 ratio. 4 hours following transfection, compound analogs were added using a Tecan transfer tool to the wells. The plate was incubated for 18 hours, and then firefly luciferase signal measured using promega Dual-Glo luciferase assay system according to the manufacturer's protocols. The signal was normalized to control wells which were treated with DMSO vehicle.

endogenous Myb protein = test: Molt4-5×MRE-FLuc reporter assay; assay type: cell-based; conditions: 4 hours, One-Glo, normalized to DMSO; read-out: IC50 Molt4-5xMRE-FLuc Reporter
Method: Molt4 cells were stably transduced with a lentiviral construct encoding a 5×MRE Myb-responsive promoter driving firefly luciferase expression. The reporter output is controlled by the levels/activity of endogenous Myb protein in the Molt4 cell line.
Molt4-5×MRE-FLuc cells were plated at a density of 10000 cells/well in 25 uL of media in a 384-well plate. Compound analogs were added using a Tecan transfer tool to the wells. The plate was incubated for 4 hours, and then firefly luciferase signal measured using promega One-Glo luciferase assay system according to the manufacturer's protocols. The signal was normalized to control wells which were treated with DMSO vehicle.

Molt4-5×MRE-FLuc cells = test: Cell-Titer Glo viability assay, Molt4-5×MRE-FLuc cells; assay type: cell-based; conditions: 4 hours; read-out: IC50 Cell Titer Glo Molt4-5xMRE-FLuc Viability
Method: Molt4-5×MRE-FLuc cells were plated at a density of 10000 cells/well in 25 uL of media in a 384-well plate. The following day, compound analogs were added using a Tecan transfer tool. The plates were incubated for 4 hours, and then the viability was measured using promega Cell-titer glo assay according to the manufacturer's protocols.

MYB-TAF12 interaction = target: T1, MYB-TAF12 interaction (Homo sapiens, UniProt P10242); test: In-cell BRET protein-protein interaction assay; assay type: cell-based; conditions: FIG. 1B, read-out: IC50 for blocking the MYB-TAF12 interaction
T1 construct: BRET donor or acceptor fusion (which one is not specified); expressed in transfected cells
Method: (§2) In-cell bioluminescence resonance energy transfer (BRET) assays were developed to assess the influence of the compounds on MYB-p300 and MYB-TAF12 interactions (FIG. 1A). […] The ability of KI-TM-001 to modulate MYB protein and transcript levels in MOLT4 and Jurkat cells was also evaluated. […] Degradation appears to be proteasome-dependent as MYB can be rescued by treatment with the proteasome inhibitor MG132.

800 cancer cell lines = test: PRISM cell profiling in barcoded and pooled cancer cell lines; assay type: cell-based
Description: (§3) Efforts have also included assessment of impact on viable cell growth using traditional luminescent cell viability assays (e.g., CellTiter-Glo™ or GTG) and high-throughput profiling in barcoded and pooled cancer cell lines. Collaboration with the Broad Institute's PRISM cell profiling platform provided the ability to survey sensitivity to KI-TM-001 against 800 cancer cell lines representing a broad spectrum of lineages, including 300 suspension lines and 500 adherent lines.
(§4) Roughly 650 of the lines passed quality control analyses. […] The CTG assay is well established has been used to survey viability of cell lines used routinely in the lab, noting a separation between solid tumor lines and hematopoetic lineages (FIG. 3B).

APL line NB4 = test: PRISM cell profiling, NB4; assay type: cell-based; conditions: PRISM data set
Description: as §3, §4

[1] = system: MM1.S, a multiple myeloma line; test: Cell Titer Glo assay, MM1.S; assay type: cell-based; conditions: Homo sapiens, FIG. 3B
Description: FIG. 3B is a plot showing Cell Titer Glo assay results for KI-TM-001 in several hematopoietic lines versus prostate and ovarian cell lines.
as §3, §4

MYB [2] = target: T2, MYB (Homo sapiens, UniProt P10242); test: Initial binding studies, MYB
Method: (§5) Next, analogues of KI-TM1-001 were prepared and evaluated. Compounds of Formula (I) may be prepared using the synthetic schemes and procedures described in detail below.
Target sequence in this assay (P10242 whole entry, species assumed): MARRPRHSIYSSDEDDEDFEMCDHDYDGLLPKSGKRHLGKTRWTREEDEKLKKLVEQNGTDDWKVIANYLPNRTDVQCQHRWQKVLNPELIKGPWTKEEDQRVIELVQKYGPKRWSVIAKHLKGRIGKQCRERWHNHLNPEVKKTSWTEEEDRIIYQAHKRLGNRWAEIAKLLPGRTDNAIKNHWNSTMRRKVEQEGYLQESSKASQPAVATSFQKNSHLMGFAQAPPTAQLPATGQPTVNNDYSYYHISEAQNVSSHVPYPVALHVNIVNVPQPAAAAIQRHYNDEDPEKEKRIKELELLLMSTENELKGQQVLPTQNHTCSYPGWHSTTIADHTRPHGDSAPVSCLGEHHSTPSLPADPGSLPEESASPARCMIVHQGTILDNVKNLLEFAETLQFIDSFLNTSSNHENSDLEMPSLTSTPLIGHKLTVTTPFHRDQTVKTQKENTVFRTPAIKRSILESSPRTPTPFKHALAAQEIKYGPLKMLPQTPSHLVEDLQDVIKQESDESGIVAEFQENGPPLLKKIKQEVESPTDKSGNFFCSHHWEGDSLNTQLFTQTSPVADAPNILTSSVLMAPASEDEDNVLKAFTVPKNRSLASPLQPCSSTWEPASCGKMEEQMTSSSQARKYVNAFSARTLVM

MYB-NFIB fusion protein = test: Initial binding studies, MYB-NFIB
Method: as §5

MYB [3] = target: T2, MYB; test: MYB protein levels in MOLT4 and Jurkat cells; assay type: cell-based; design: endogenous in cells; host or cells: MOLT4 and Jurkat cells
Method: FIG. 2 is a plot showing a dose curve of KI-TM-001, and its effect on MYB protein levels in Molt4 at the 6 hour timepoint.
as §2
Target sequence in this assay (P10242 whole entry): as the sequence (P10242 whole entry, species assumed) above

T1 sequence (P10242 whole entry, the tested form may be a part): as the sequence (P10242 whole entry, species assumed) above

Row | Compound | IC50 (endogenous MYB) | IC50 (Jurkat) | IC50 (c-Myb) | also measured
1 | CC(=O)N(Cc1cccc(N2CCCC2)c1)C1CCN(c2cc(C)nc(N)n2)CC1 [drawing 231] | 11 µM | > 30 µM | – | –
2 | Cc1cc(N2CCC(N(Cc3cccc(N4CCCC4)c3)C(=O)NC(C)C)CC2)nc(N)n1 [drawing 230] | 26.4 µM | > 30 µM | – | –
3 | Cc1cc(N2CCC(NCc3ccccc3)CC2)nc(N)n1 | 25.7 µM | > 30 µM | > 40 µM | –
4 | CCN(CC)c1ccc(CNC2CCN(c3cc(C)nc(N)n3)CC2)cc1 [drawing 246] | – | – | > 30 µM | –
5 | Cc1cc(N2CCC(NCc3cccc(-n4cccc4)c3)CC2)nc(N)n1 [drawing 236] | 12.1 µM | 21.6 µM | 14.8 µM | –
6 | Cc1cc(N2CCC(NCc3cccc(C(C)(C)C)c3)CC2)nc(N)n1 [drawing 245] | – | – | > 30 µM | –
7 | Cc1cc(N2CCC[C@@H](NCc3cccc(N4CCCC4)c3)C2)nc(N)n1 [drawing 241] | 2.25 µM | 4.41 µM | – | –
8 | Cc1cc(N2CCC(NCc3ccccc3N3CCCC3)CC2)nc(N)n1 [drawing 232] | 3.09 µM | > 30 µM | > 40 µM | –
9 | Cc1cc(N2CCC(NCc3cccc(-n4cccn4)c3)CC2)nc(N)n1 | 30.6 µM | > 30 µM | > 40 µM | –
10 | Cc1cc(N2CCC(NCc3cccc(N4CCCC4)c3)CC2)nc(N)n1 [drawing 228] | 3.49 µM | 3.24 µM | 15.9 µM | –
11 | Cc1cc(N2CCC(NCc3cccc(N(C)C)c3)CC2)nc(N)n1 [drawing 237] | > 40 µM | > 30 µM | > 40 µM | –
12 | Cc1cc(N2CCC[C@H](NCc3cccc(N4CCCC4)c3)C2)nc(N)n1 [drawing 242] | 8.08 µM | 19.7 µM | – | –
13 | Cc1cc(NCCCNCc2cccc(N3CCCC3)c2)nc(N)n1 [drawing 243] | 8.55 µM | > 30 µM | – | –
14 | Cc1cc(N2CCC(NCc3cccc(N4CCCC4)c3)CC2)nc(N)n1 [KI-TM1-001, 4-Methyl-6-(4-((3-(pyrrolidin-1-yl)benzyl)amino)piperidin-1-yl)pyrimidin-2-amine] | – | – | – | IC50 (endogenous Myb protein): 13.6 µM; IC50 (Molt4-5×MRE-FLuc cells): > 40 µM; IC50 (MYB-TAF12 interaction): 7.07 µM and 7.1 µM; IC50 (800 cancer cell lines; PRISM data set, read-out: IC50 in a number of hematopoietic lines): < 1000 nM; lineages most impacted / lineage enrichment (median AUC versus lineage) (800 cancer cell lines; PRISM, roughly 650 lines passed quality control, FIG. 3A, listed as KI-TM-001): rhabdomysosarcoma, multiple myeloma, lymphoma, and leukemia; also recorded: mild enrichment for leukemia, lymphoma, multiple myeloma and rhabdomyosarcoma (RMS) cell lines; IC50 (APL line NB4): 210 nM; GI50 [1]: 2010 nM; binding to MYB (MYB [2]): binds; binding to MYB-NFIB fusion protein (MYB-NFIB fusion protein): binds; time to impact on MYB protein levels (MYB [3]; MOLT4 and Jurkat cells): ≤ 2 h; mechanism of MYB degradation (MYB [3]; MYB rescued by the proteasome inhibitor MG132): proteasome-dependent; effect on MYB protein levels (MYB [3]; different cell lines (MOLT4, Jurkat), FIG. 1C-E, FIG. 2, listed as KI-TM-001): dose-dependent reduction of MYB protein; also recorded: dose-dependent manner
15 | Cc1cc(N2CCC(NCc3cccc(N4CCCCC4)c3)CC2)nc(N)n1 [drawing 235] | 4.18 µM | 11.2 µM | 25.2 µM | –
16 | Cc1cc(N2CCC(NCc3cccc(N4CCCC4)c3)CC2)ncn1 [drawing 244] | – | – | > 30 µM | –
17 | COc1cccc(CNC2CCN(c3cc(C)nc(N)n3)CC2)c1 [drawing 238] | 30.1 µM | > 30 µM | > 40 µM | –
18 | Cc1cc(N2CCC(NCc3ccc(N4CCCC4)cc3)CC2)nc(N)n1 [drawing 233] | 17.3 µM | > 30 µM | > 40 µM | –
19 | Cc1cc(N2CCC(NCc3cccc(-n4ccnc4)c3)CC2)nc(N)n1 [drawing 240] | 25.7 µM | > 30 µM | > 40 µM | –
20 | Cc1cc(N2CCC(NC(=O)c3cccc(N4CCCC4)c3)CC2)nc(N)n1 [drawing 234] | 11.1 µM | > 30 µM | > 40 µM | –
